From patent publication US8541193B2, “Cationic anti-microbial peptides and methods of use thereof” (Systagenix Wound Management (US), Inc., priority 2003, dated 2013)
Where no end group is shown, it is not given here.

Experiments:
[1] = tested on: Pseudomonas; assay: Fluorimetric (edans/dabcyl) protease detection assay with bacterial culture or supernatant in buffer; type: biochemical
Method: (§1) The peptide substrates used here were labeled with the fluorescent probe edans (5-((2-aminoethyl)amino)naphthalene-1-sulphonic acid) and the quencher dye molecule dabcyl((4-(4-(dimethylamino)phenyl)azo)benzoic acid).
(§2) The bacteria were grown in an incubator overnight at 37° C. in 5 ml BHI (Brain Heart Infusion) media. Each of the resulting cultures was split into two samples. One was used as is, and the other was spun down and the supernatant was collected. The assays were run in 20 mM tris buffer (pH 7.4) with 150 mM NaCl added. The reaction was carried out with 7 μl of culture or supernatant and 3 μl peptide substrate (5 mg/ml in water) in 100 μl total volume at 37 C. The reaction was followed on a fluorimetric plate reader using an excitation wavelength of 355 nm and an emission wavelength of 485 nm.
(§3) The first set of experiments was performed by addition of the bacterial culture (media and cells) directly into the assay solution. If the protease is attached to the cell membrane it would not be expected to be found secreted into the media. Thus, the presence of cells would be necessary.
(§4) Bacterial cells used in this assay were grown to stationary phase in Brain Heart Infusion (BHI) medium. Briefly, 7 μl of bacterial culture was incubated with 3 μl of LL 1 peptide substrate and […] of […]). The reaction was followed on a 96 well microtiter plate reader using an excitation an emission wavelength of 355 nm and 538 nm respectively at 37° C. The reaction was monitored for a period of 1 hr. and plotted using the KALEIDAGRAPH software. Buffer, 20 mM Tris buffer (pH 7.4) with 150 mM NaCl.
(§5) The assay was repeated using identical conditions with the peptide LL2.
(§6) Bacterial cells used in this assay were grown to stationary phase in Brain Heart Infusion (BHI) medium. The assay was performed as previously described.

[2] = tested on: S. pyogenes; assay: as above; type: biochemical
Method: as §1, §2, §3, §4, §5, §6

[3] = tested on: Serratia; assay: Fluorimetric (edans/dabcyl) protease detection assay with bacterial culture in buffer; type: biochemical; conditions: Serratia bacterial culture (media and cells), 37 C, 1 hr
Method: as §1, §2
The first set of experiments was performed by addition of the bacterial culture (media and cells) directly into the assay solution. If the protease is attached to the cell membrane it would not be expected to be found secreted into the media. […]
Bacterial cells used in this assay were grown to stationary phase in Brain Heart Infusion (BHI) medium. […] The reaction was followed on a 96 well microtiter plate reader using an excitation an emission wavelength of 355 nm and 538 nm respectively at 37° C. The reaction was monitored for a period of 1 hr. and plotted using the KALEIDAGRAPH software. […]

[4] = tested on: Pseudomonas; assay: Porcine wound fluid protease assay; type: biochemical
Method: (§7) In order to test for cross reactivity in a wound, the assays were performed under physiologically relevant conditions. The assay for LL1 and LL2 were tested using porcine wound fluid extract in place of reaction buffer.
(§8) Immediately after surgery to create partial thickness wounds for the sensor study a gauze dressing was placed on the wound. After a time the dressing was removed, bagged, and placed in a freezer at −80 C. Absorbed wound fluid was recovered from the dressing by incubation in 10 mls buffer (0.1M Tris-HCl, pH 7.4 with 0.1% TRITON X-100® non-ionic surfactant (Octylphenol ethylene oxide condensate; Sigma Aldrich, St. Louis, Mo.). The dressing was incubated on both sides for 2 hours at room temperature and squeezed out. The fluid obtained was aliquoted out and frozen at −20 C.
as §2, with “was” for “was split into two samples. One was used as is, and the other was”, “freshly thawed wound fluid.” for “20 mM tris buffer (pH 7.4) with 150 mM NaCl added.”
(§9) The protease assay was run using the LL2 peptide previously identified as a substrate for S. pyogenes and Pseudomonas.
(§10) Bacterial cells used in this assay were grown to stationary phase in Brain Heart Infusion […] medium. Briefly, 5 μl of bacterial culture was incubated with 3 μl of LL2 peptide substrate and 92 μl of sterile wound fluid. The reaction was followed on a 96 well microtiter plate reader using an excitation an emission wavelength of 355 nm and 538 nm respectively at 37° C. The reaction was monitored for a period of 1 h and plotted using the KALEIDAGRAPH software.

[5] = tested on: S. pyogenes; assay: Porcine wound fluid protease assay; type: biochemical; conditions: S. pyogenes bacterial supernatant in porcine wound fluid
Method: as §7, §8
as §2, with “was” for “was split into two samples. One was used as is, and the other was”, “freshly thawed wound fluid.” for “20 mM tris buffer (pH 7.4) with 150 mM NaCl added.”
as §9, §10

[6] = tested on: proteinases secreted by Streptococcus pyogenes; conditions: in vitro; cited from earlier work
[7] = tested on: proteinases secreted by Pseudomonas aeruginosa; conditions: in vitro; cited from earlier work
[8] = tested on: proteinases secreted by Enterococcus faecalis; conditions: in vitro; cited from earlier work
[9] = tested on: proteinases secreted by Proteus mirabilis; conditions: in vitro; cited from earlier work
[10] = Pseudomonas bacterial culture (media and cells), buffer, 37 C, 1 hr
[11] = Pseudomonas bacterial supernatant, compared with culture with cells
[12] = S. pyogenes bacterial culture (media and cells), buffer, 37 C, 1 hr

## LL1: peptide substrate, variant of LL-37 encompassing its cleavage sites, labeled with fluorescent probe edans and quencher dabcyl (FIG. 1B) (KEKIGKEFKRIVQE; also: labeled with edans and dabcyl)
[1]; [10]
  protease activity on peptide substrate (fluorescence): Some protease activity
[1]; [11]
  protease activity on peptide substrate (fluorescence): reduced
[2]; [12]
  protease activity on peptide substrate (fluorescence): Some protease activity
[2]; S. pyogenes bacterial supernatant, compared with culture with cells
  protease activity on peptide substrate (fluorescence): similar
[3]
  protease activity on peptide substrate (fluorescence): a small amount of activity

## LL2: peptide substrate, variant of LL-37 encompassing its cleavage sites, labeled with fluorescent probe edans and quencher dabcyl (FIG. 1C) (KVQRIKDFLRNLVE; also: labeled with edans and dabcyl)
[4]; Pseudomonas bacterial culture in sterile porcine wound fluid, 37 C, 1 h
  protease activity on peptide substrate (fluorescence): did not have any activity above the background
[4]; Pseudomonas bacterial supernatant in porcine wound fluid
  protease activity on peptide substrate (fluorescence): same results
[5]
  protease activity on peptide substrate (fluorescence): same results
[1]; [10]
  protease activity on peptide substrate (fluorescence): overall reactivity appears to be reduced somewhat
[1]; [11]
  protease activity on peptide substrate (fluorescence): reduced
[2]; FIG. 3 legend
  specificity of peptide substrate: specific for S. pyogenes
[2]; [12]
  protease activity on peptide substrate (fluorescence): overall reactivity appears to be reduced somewhat

## LLGDFFRKSKEKIGKE FKRIVQRIKDFLRNLVPRTES [LL-37]
[6]
  degradation of peptide by secreted proteinases: degrade
[7]
  degradation of peptide by secreted proteinases: degrade
[8]
  degradation of peptide by secreted proteinases: degrade
[9]
  degradation of peptide by secreted proteinases: degrade
